Measurements from the NIST ThermoML archive (doi:10.1016/j.jct.2006.07.025).
Values joined by “and” are separate entries in the source; they are usually repeats but may differ in a detail not shown here. Equal values may be shown once. Numbers after ± are expanded uncertainties.

Experiments:
[1] = for surface tension liquid-gas: Pendant drop shape; for mass density: 101 kPa, Liquid, Vibrating tube method
[2] = xn = mol fraction of the nth substance listed; conditions: x1 = 1; for surface tension liquid-gas: Pendant drop shape; for mass density: 101 kPa, Liquid, Vibrating tube method

Structure (SMILES)	surface tension liquid-gas ([1]; 298.15 K)	mass density ([1]; 298.15 K)	surface tension liquid-gas ([1]; 303.15 K)	mass density ([1]; 303.15 K)	surface tension liquid-gas ([1]; 308.15 K)	mass density ([1]; 308.15 K)	surface tension liquid-gas ([1]; 313.15 K)	mass density ([1]; 313.15 K)	surface tension liquid-gas ([2]; 298.15 K)	mass density ([2]; 298.15 K)	surface tension liquid-gas ([2]; 303.15 K)	mass density ([2]; 303.15 K)	surface tension liquid-gas ([2]; 308.15 K)	mass density ([2]; 308.15 K)	surface tension liquid-gas ([2]; 313.15 K)	mass density ([2]; 313.15 K)
Cc1ccc(C)c(C)c1 [1,2,4-trimethylbenzene]	29.17 ± 0.33 mN/m	871.66 ± 0.19 kg/m3	28.67 ± 0.32 mN/m	867.61 ± 0.19 kg/m3	28.17 ± 0.32 mN/m	863.59 ± 0.19 kg/m3	27.67 ± 0.31 mN/m	859.54 ± 0.19 kg/m3								
CCCOC(C)=O [propyl ethanoate]	23.99 ± 0.27 mN/m	882.64 ± 0.15 kg/m3	23.36 ± 0.26 mN/m and 23.35 ± 0.26 mN/m	876.99 ± 0.15 kg/m3	22.73 ± 0.26 mN/m	871.33 ± 0.15 kg/m3	22.1 ± 0.3 mN/m	865.68 ± 0.15 kg/m3								
CCCCOC(C)=O [butyl ethanoate] + Cc1ccc(C)c(C)c1									24.89 ± 0.27 mN/m	876.18 ± 0.14 kg/m3	24.35 ± 0.27 mN/m	871.31 ± 0.14 kg/m3	23.82 ± 0.27 mN/m	866.24 ± 0.14 kg/m3	23.28 ± 0.26 mN/m	861.57 ± 0.14 kg/m3
CCCCOC(C)=O [butyl ethanoate] + Cc1cc(C)cc(C)c1									24.89 ± 0.27 mN/m	876.18 ± 0.14 kg/m3	24.35 ± 0.27 mN/m	871.31 ± 0.14 kg/m3	23.82 ± 0.27 mN/m	866.24 ± 0.14 kg/m3	23.28 ± 0.26 mN/m	861.57 ± 0.14 kg/m3
CCCOC(C)=O [propyl ethanoate] + Cc1cc(C)cc(C)c1									23.99 ± 0.27 mN/m	882.64 ± 0.15 kg/m3	23.35 ± 0.26 mN/m	876.99 ± 0.15 kg/m3	22.73 ± 0.26 mN/m	871.33 ± 0.15 kg/m3	22.1 ± 0.25 mN/m	865.68 ± 0.15 kg/m3
Cc1cc(C)cc(C)c1 [1,3,5-trimethylbenzene]	28.09 ± 0.31 mN/m	861.04 ± 0.18 kg/m3	27.67 ± 0.31 mN/m	856.96 ± 0.18 kg/m3	27.24 ± 0.3 mN/m	852.84 ± 0.18 kg/m3	26.82 ± 0.3 mN/m	848.74 ± 0.18 kg/m3								
CCCOC(C)=O [propyl ethanoate] + Cc1ccc(C)c(C)c1									23.99 ± 0.27 mN/m	882.64 ± 0.15 kg/m3	23.36 ± 0.26 mN/m	876.99 ± 0.15 kg/m3	22.73 ± 0.26 mN/m	871.33 ± 0.15 kg/m3	22.1 ± 0.3 mN/m	865.68 ± 0.15 kg/m3
CCCCOC(C)=O [butyl ethanoate]	24.89 ± 0.27 mN/m	876.18 ± 0.14 kg/m3	24.35 ± 0.27 mN/m	871.31 ± 0.14 kg/m3	23.82 ± 0.27 mN/m	866.24 ± 0.14 kg/m3	23.28 ± 0.26 mN/m	861.57 ± 0.14 kg/m3								
